Laboratory results published in ChEMBL document CHEMBL2150933 (J Med Chem, 2012).
Activity calls are given as the source filed them. The rule behind the calls is not given here.

Legend:
[1] = Plasma concentration in CD1 mouse at 18 mg/kg, iv administered as single dose measured after 5 mins; assay type: ADME, organism-based; set-up: dose 18 mg/kg, route intravenous
[2] = tested on: SK-MEL-2; assay: Antitumor activity against human SK-MEL-2 cells xenografted in athymic nu/nu Harlan mouse assessed as tumor growth inhibition at 20 mg/kg, iv administered Q3D for 10 days relative to control; assay type: functional, organism-based; set-up: dose 20 mg/kg
[3] = tested on: Mus musculus; assay: Toxicity in athymic nu/nu Harlan mouse xenografted with human COLO205 cells assessed as adverse reactions at 20 mg/kg, iv administered Q3D for 10 days relative to control; assay type: organism-based, COLO 205; set-up: dose 20 mg/kg, route intravenous; settings: in vivo, 240 h
[4] = tested on: Mus musculus; assay: Toxicity in athymic nu/nu Harlan mouse xenografted with human COLO205 cells assessed as mortality at 20 mg/kg, iv administered Q3D for 10 days relative to control; assay type: organism-based, COLO 205; set-up: dose 20 mg/kg, route intravenous; settings: in vivo, 240 h
[5] = tested on: Mus musculus; assay: Toxicity in athymic nu/nu Harlan mouse xenografted with human COLO205 cells assessed as change in body weight at 20 mg/kg, iv administered Q3D for 10 days relative to control; assay type: organism-based, COLO 205; set-up: dose 20 mg/kg, route intravenous; settings: in vivo, 240 h
[6] = tested on: Mus musculus; assay: Toxicity in athymic nu/nu Harlan mouse xenografted with human SK-MEL-2 cells assessed as adverse reactions at 10 mg/kg, iv administered Q2D for 10 days relative to control; assay type: organism-based; set-up: dose 10 mg/kg, route intravenous; settings: in vivo, 240 h
[7] = tested on: Mus musculus; assay: Toxicity in athymic nu/nu Harlan mouse xenografted with human SK-MEL-2 cells assessed as adverse reactions at 20 mg/kg, iv administered Q3D for 10 days relative to control; assay type: organism-based; set-up: dose 20 mg/kg, route intravenous; settings: in vivo, 240 h
[8] = tested on: Mus musculus; assay: Toxicity in athymic nu/nu Harlan mouse xenografted with human SK-MEL-2 cells assessed as change in body weight at 20 mg/kg, iv administered Q3D for 10 days relative to control; assay type: organism-based; set-up: dose 20 mg/kg, route intravenous; settings: in vivo, 240 h
[9] = tested on: EKVX; assay: Cytotoxicity against human EKVX cells after 48 hrs by SRB assay; assay type: functional
[10] = tested on: RPMI-8226; assay: Cytotoxicity against human RPMI8226 cells after 48 hrs by SRB assay; assay type: functional; settings: RPMI-8226, 48 h
[11] = tested on: SR; assay: Cytotoxicity against human SR cells after 48 hrs by SRB assay; assay type: functional
[12] = tested on: K562; assay: Cytotoxicity against human K562 cells after 48 hrs by SRB assay; assay type: functional; settings: K562, 48 h
[13] = tested on: HL-60; assay: Cytotoxicity against human HL60 cells after 48 hrs by SRB assay; assay type: functional; settings: HL-60, 48 h
[14] = tested on: BXPC-3; assay: Cytotoxicity against human BxPC3 cells after 72 hrs by MTT assay; assay type: functional; settings: BXPC-3, 72 h
[15] = tested on: NCI-H23; assay: Cytotoxicity against human NCI-H23 cells after 48 hrs by SRB assay; assay type: functional; settings: NCI-H23, 48 h
[16] = tested on: COLO 205; assay: Cytotoxicity against human COLO205 cells after 48 hrs by SRB assay; assay type: functional; settings: COLO 205, 48 h, read-out: pGI50 (converted)
[17] = tested on: HT-29; assay: Cytotoxicity against human HT-29 cells after 48 hrs by SRB assay; assay type: functional; settings: HT-29, 48 h
[18] = tested on: SW-620; assay: Cytotoxicity against human SW620 cells after 48 hrs by SRB assay; assay type: functional; settings: SW-620, 48 h
[19] = tested on: SF-268; assay: Cytotoxicity against human SF268 cells after 48 hrs by SRB assay; assay type: functional; settings: SF-268, 48 h
[20] = tested on: SNB-19; assay: Cytotoxicity against human SNB19 cells after 48 hrs by SRB assay; assay type: functional; settings: SNB-19, 48 h
[21] = tested on: U-251; assay: Cytotoxicity against human U251 cells after 48 hrs by SRB assay; assay type: functional; settings: U-251, 48 h, read-out: pGI50 (converted)
[22] = tested on: MDA-MB-435; assay: Cytotoxicity against human MDA-MB-435 cells after 48 hrs by SRB assay; assay type: functional; settings: MDA-MB-435, 48 h
[23] = tested on: SK-MEL-2; assay: Cytotoxicity against human SK-MEL-2 cells after 48 hrs by SRB assay; assay type: functional; settings: SK-MEL-2, 48 h
[24] = tested on: SK-MEL-28; assay: Cytotoxicity against human SK-MEL-28 cells after 48 hrs by SRB assay; assay type: functional; settings: SK-MEL-28, 48 h
[25] = tested on: SK-MEL-5; assay: Cytotoxicity against human SK-MEL-5 cells after 48 hrs by SRB assay; assay type: functional; settings: SK-MEL-5, 48 h
[26] = tested on: UACC-62; assay: Cytotoxicity against human UACC62 cells after 48 hrs by SRB assay; assay type: functional; settings: UACC-62, 48 h
[27] = tested on: OVCAR-5; assay: Cytotoxicity against human OVCAR5 cells after 48 hrs by SRB assay; assay type: functional; settings: OVCAR-5, 48 h
[28] = Cytotoxicity against human NCI-ADR-RES cells after 48 hrs by SRB assay; assay type: functional
[29] = tested on: SK-OV-3; assay: Cytotoxicity against human SKOV3 cells after 48 hrs by SRB assay; assay type: functional; settings: SK-OV-3, 48 h
[30] = tested on: A498; assay: Cytotoxicity against human A498 cells after 48 hrs by SRB assay; assay type: functional; settings: A498, 48 h
[31] = tested on: ACHN; assay: Cytotoxicity against human ACHN cells after 48 hrs by SRB assay; assay type: functional
[32] = tested on: SN12C; assay: Cytotoxicity against human SN12C cells after 48 hrs by SRB assay; assay type: functional
[33] = tested on: UO-31; assay: Cytotoxicity against human UO31 cells after 48 hrs by SRB assay; assay type: functional; settings: UO-31, 48 h
[34] = tested on: PC-3; assay: Cytotoxicity against human PC3 cells after 48 hrs by SRB assay; assay type: functional; settings: PC-3, 48 h
[35] = tested on: MCF7; assay: Cytotoxicity against human MCF7 cells after 48 hrs by SRB assay; assay type: functional; settings: MCF7, 48 h
[36] = tested on: MDA-MB-231; assay: Cytotoxicity against human MDA-MB-231 cells after 48 hrs by SRB assay; assay type: functional; settings: MDA-MB-231, 48 h
[37] = tested on: Hs-578T; assay: Cytotoxicity against human Hs578T cells after 48 hrs by SRB assay; assay type: functional
[38] = tested on: T47D; assay: Cytotoxicity against human T47D cells after 48 hrs by SRB assay; assay type: functional

CO[C@@H]([C@@H]1Cc2cc3cc(O[C@H]4C[C@@H](O[C@H]5C[C@@H](O)[C@H](O)[C@@H](C)O5)[C@H](O)[C@@H](C)O4)c(C)c(O)c3c(O)c2C(=O)[C@H]1O[C@H]1C[C@@H](O[C@H]2C[C@@H](O[C@H]3C[C@H](O)[C@H](O)[C@@H](C)O3)[C@H](O)[C@@H](C)O2)[C@H](O)[C@@H](C)O1)[C@@H](O)C(C)=O
concentration at 5 min [1]: 28 µM
TGI [2]: Active
Activity [3]: Non-toxic
Activity [4]: Non-toxic
Activity [5]: Non-toxic
Activity [6]: Non-toxic
Activity [7]: Non-toxic
Activity [8]: Non-toxic
GI50 [9]: 85.1 nM
GI50 [10]: 16.2 nM
GI50 [11]: 12.9 nM
GI50 [12]: 17.4 nM
GI50 [13]: 24 nM
GI50 [14]: 300 nM
GI50 [15]: 22.4 nM
GI50 [16]: 21.4 nM
GI50 [17]: 21.4 nM
GI50 [18]: 22.4 nM
GI50 [19]: 22.4 nM
GI50 [20]: 28.2 nM
GI50 [21]: 18.6 nM
GI50 [22]: 23.4 nM
GI50 [23]: 27.5 nM
GI50 [24]: 18.6 nM
GI50 ([25]; read-out: GI50): 16 nM
GI50 ([25]; read-out: pGI50 (converted)): 17 nM
GI50 [26]: 12 nM
GI50 [27]: 39.8 nM
GI50 [28]: 50100 nM
GI50 [29]: 26.3 nM
GI50 [30]: 14.4 nM
GI50 [31]: 34.7 nM
GI50 [32]: 20.9 nM
GI50 [33]: 69.2 nM
GI50 [34]: 21.4 nM
GI50 [35]: 13.8 nM
GI50 ([36]; read-out: GI50): 50 nM
GI50 ([36]; read-out: pGI50 (converted)): 47.9 nM
GI50 [37]: 16.2 nM
GI50 [38]: 25.7 nM
